From US20230064983A1 (priority 2020, published 2023)
Values joined by “and” are separate entries in the source; they are usually repeats but may differ in a detail not shown here. Identical values can stand only once. Like-named read-outs stand apart in the source and are kept apart here.

Columns and labels:
Bub1 = molecular target: T1, Bub1 (Homo sapiens, UniProt O43683); assay: Bub1 high ATP kinase assay (TR-FRET); assay type: biochemical; conditions: 2 mM ATP, Table 3
T1 construct: catalytic domain of human Bub1 (amino acids 704-1085); His6 (N); made in house; host or cells: insect cells (Hi5)
T1 sequence (O43683 704-1085): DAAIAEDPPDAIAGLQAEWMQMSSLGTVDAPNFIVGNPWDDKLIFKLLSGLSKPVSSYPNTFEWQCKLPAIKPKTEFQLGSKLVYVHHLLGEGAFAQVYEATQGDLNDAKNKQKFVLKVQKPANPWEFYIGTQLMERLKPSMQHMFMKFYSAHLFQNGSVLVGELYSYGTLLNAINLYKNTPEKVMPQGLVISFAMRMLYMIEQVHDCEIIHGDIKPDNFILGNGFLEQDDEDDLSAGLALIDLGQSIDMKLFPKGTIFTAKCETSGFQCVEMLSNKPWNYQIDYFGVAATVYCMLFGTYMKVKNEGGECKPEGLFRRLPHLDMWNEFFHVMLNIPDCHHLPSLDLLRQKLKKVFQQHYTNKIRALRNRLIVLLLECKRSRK
Text: Bub1 high ATP Kinase Assay
Bub1-inhibitory activity of compounds of the present invention at a high ATP concentration was quantified employing the Bub1 TR-FRET high ATP kinase assay as described in the following paragraphs.
N-terminally His6-tagged recombinant catalytic domain of human Bub1 (amino acids 704-1085), expressed in insect cells (Hi5) and purified by Ni-NTA affinity chromatography and subsequent size exclusion chromatography, was used as enzyme. As substrate for the kinase reaction the biotinylated peptide biotin-Ahx-[…] (C-terminus in amid form) was used which can be purchased e.g. form the company Biosyntan (Berlin, Germany).
Then the kinase reaction was started by the addition of 2 μl of a solution of Bub1 in assay buffer and the resulting mixture was incubated for a reaction time of 60 min at 22° C. The concentration of Bub1 was adjusted depending of the activity of the enzyme lot and was chosen appropriate to have the assay in the linear range, a typical concentration is about 200 ng/ml. The reaction was stopped by the addition of 3 μl of a solution of TR-FRET detection reagents (0.167 μM streptavidine-XL665 [Cisbio Bioassays, Codolet, France] and 1.67 nM anti-phosho-Serine antibody [Merck Millipore, cat. #35-002] and 0.67 nM LANCE EU-W1024 labeled anti-mouse IgG antibody [Perkin-Elmer, product no. AD0077, as an alternative a Terbium-cryptate-labeled anti-mouse IgG antibody from Cisbio Bioassays can be used]) in an aqueous EDTA-solution (83.3 mM EDTA, 0.2% (w/v) bovine serum albumin in 100 mM HEPES pH 7.5).
The resulting mixture was incubated 1 h at 22° C. to allow the formation of complex between the phosphorylated biotinylated peptide and the detection reagents. Subsequently the amount of phosphorylated substrate was evaluated by measurement of the resonance energy transfer from the Eu-chelate to the streptavidine-XL. Therefore, the fluorescence emissions at 620 nm and 665 nm after excitation at 350 nm was measured in a TR-FRET reader, e.g. a Pherastar or Pherastar FS (both from BMG Labtechnologies, Offenburg, Germany) or a Viewlux (Perkin-Elmer). The ratio of the emissions at 665 nm and at 622 nm was taken as the measure for the amount of phosphorylated substrate.

[1] = molecular target: T2, EGFR with insertion SVD between D770 and N771 (mutEGFR D770_N771insSVD) (Homo sapiens, UniProt P00533, DUP768-770); assay: Exon20-Mutant-EGFR(D770_N771insSVD) kinase assay (TR-FRET); assay type: biochemical; conditions: 2 mM ATP, Table 2
T2 construct: amino acids R669 to A1210; made in house; host or cells: Sf9 insect cells (baculovirus)
T2 sequence (P00533 other isoform, or with tags, fused parts or gaps DUP768-770): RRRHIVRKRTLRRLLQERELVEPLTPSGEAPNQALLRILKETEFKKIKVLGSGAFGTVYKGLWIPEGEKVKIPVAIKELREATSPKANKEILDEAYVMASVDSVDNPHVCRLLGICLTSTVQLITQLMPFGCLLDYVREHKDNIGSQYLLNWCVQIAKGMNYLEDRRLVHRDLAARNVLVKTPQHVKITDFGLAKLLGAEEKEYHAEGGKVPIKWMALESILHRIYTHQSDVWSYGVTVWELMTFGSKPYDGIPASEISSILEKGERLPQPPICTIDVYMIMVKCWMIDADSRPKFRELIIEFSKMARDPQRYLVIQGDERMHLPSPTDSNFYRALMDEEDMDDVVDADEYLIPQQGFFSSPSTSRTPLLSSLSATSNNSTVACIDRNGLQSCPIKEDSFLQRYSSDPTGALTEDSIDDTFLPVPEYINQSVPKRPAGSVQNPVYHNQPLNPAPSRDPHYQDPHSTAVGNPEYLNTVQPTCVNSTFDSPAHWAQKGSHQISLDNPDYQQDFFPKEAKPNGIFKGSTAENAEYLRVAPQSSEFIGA

[2] = molecular target: Ba/F3-EGFR-D770_N771insSVD cells (Homo sapiens, UniProt P00533, DUP768-770, cells depend on it); assay: Ba/F3 cell survival assay, EGFR D770_N771insSVD; assay type: cell-based; conditions: Cell Titer-Glo, 48 h, without IL-3; Table 4; read-out: BA/F3 (insSVD) IC50
Sequence of Ba/F3-EGFR-D770_N771insSVD cells (P00533 with tags, fused parts or gaps DUP768-770): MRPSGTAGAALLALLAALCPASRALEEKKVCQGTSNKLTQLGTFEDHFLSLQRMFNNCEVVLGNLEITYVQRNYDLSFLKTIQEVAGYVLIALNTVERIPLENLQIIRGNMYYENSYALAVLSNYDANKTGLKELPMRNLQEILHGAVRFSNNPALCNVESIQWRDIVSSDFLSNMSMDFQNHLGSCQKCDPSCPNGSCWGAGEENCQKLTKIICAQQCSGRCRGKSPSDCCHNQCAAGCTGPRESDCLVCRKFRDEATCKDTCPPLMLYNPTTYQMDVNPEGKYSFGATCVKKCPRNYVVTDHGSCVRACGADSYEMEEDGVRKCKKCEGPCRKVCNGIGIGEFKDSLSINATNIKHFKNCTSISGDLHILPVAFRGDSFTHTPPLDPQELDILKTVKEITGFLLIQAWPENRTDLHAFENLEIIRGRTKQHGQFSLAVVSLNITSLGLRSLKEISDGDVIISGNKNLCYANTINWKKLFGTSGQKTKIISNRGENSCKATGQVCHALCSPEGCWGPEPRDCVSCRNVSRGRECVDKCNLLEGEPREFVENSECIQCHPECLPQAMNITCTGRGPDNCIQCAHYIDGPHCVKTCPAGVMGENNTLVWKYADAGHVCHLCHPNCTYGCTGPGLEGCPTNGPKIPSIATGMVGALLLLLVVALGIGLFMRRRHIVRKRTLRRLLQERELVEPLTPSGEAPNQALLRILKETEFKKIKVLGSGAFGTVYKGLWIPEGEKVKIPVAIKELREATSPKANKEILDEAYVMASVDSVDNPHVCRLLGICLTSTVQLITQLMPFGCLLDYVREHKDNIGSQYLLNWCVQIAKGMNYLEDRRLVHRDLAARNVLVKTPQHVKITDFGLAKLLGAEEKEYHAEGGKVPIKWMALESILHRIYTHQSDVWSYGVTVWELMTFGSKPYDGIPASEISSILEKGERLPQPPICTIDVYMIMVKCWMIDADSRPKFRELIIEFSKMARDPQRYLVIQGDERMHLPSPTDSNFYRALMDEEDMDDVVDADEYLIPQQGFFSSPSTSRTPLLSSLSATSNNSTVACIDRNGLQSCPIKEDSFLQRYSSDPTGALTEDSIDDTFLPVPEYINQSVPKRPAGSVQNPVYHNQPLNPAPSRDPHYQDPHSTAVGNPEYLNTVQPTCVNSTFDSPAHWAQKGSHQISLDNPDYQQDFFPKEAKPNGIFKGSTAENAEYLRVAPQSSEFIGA

Ba/F3-EGFR-WT cells = Ba/F3-EGFR-WT cells (Homo sapiens, UniProt P00533); assay: Ba/F3 cell survival assay, wild type EGFR; assay type: cell-based; conditions: Cell Titer-Glo, 48 h, with 10 ng/mL EGF; Table 4; read-out: BA/F3 (wild type) IC50
Sequence of Ba/F3-EGFR-WT cells (P00533 whole entry, looked up, change not shown): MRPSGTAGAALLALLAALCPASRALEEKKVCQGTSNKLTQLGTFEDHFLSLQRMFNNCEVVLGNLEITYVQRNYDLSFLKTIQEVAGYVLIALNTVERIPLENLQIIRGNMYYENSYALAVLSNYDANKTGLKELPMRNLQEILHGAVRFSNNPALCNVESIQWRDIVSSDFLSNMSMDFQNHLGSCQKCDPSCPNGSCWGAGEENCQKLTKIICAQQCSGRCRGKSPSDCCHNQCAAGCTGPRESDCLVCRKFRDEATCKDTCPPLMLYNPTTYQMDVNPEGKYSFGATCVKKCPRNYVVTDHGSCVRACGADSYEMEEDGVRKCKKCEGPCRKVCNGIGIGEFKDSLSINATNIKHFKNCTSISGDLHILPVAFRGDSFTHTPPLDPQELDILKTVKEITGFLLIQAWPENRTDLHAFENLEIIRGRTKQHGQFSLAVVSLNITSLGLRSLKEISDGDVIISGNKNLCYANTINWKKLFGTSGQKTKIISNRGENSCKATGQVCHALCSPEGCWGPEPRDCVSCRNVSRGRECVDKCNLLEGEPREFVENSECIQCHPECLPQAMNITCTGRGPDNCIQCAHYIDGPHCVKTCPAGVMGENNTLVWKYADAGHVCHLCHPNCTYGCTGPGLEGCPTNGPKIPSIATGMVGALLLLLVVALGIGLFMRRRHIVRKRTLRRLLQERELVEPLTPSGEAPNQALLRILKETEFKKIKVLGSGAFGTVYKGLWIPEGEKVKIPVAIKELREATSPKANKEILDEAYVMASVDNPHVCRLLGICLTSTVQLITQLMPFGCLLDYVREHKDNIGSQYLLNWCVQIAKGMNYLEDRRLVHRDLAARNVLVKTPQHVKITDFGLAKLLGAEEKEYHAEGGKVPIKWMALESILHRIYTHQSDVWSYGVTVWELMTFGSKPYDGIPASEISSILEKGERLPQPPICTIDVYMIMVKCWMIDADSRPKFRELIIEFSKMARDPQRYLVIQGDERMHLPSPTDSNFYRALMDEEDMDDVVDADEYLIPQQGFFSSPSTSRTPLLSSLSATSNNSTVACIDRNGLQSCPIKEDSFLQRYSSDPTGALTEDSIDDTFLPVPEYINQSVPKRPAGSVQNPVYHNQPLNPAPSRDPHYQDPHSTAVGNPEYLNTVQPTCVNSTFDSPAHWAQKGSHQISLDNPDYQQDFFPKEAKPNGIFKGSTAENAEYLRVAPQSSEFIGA

[3] = Bub1 high ATP (2 mM) IC50, TR-FRET

| SMILES | IC50 (Bub1; [3]) | mutEGFR (D770_N771insSVD) kinase assay IC50 [1] | IC50 (Bub1; read-out: Bub1 high ATP (2 mM) IC50, TR-FRET) | GI50 [2] | GI50 (Ba/F3-EGFR-WT cells) |
| --- | --- | --- | --- | --- | --- |
| COc1c(Cl)cccc1Nc1c(-c2ccncc2OCC2COCCO2)[nH]c2c1C(=O)N[C@H](C)C2 (single isomer, unassigned) [Example 26] | 3110 nM | 0.242 nM |  | 63.1 nM | 587 nM |
| COc1c(F)cccc1Nc1c(-c2ccncc2OC[C@@H]2CCCO2)[nH]c2c1C(=O)NC(C)C2 (single isomer, unassigned) [Example 10] | > 20000 nM | 0.0957 nM |  | 31.7 nM | 382 nM |
| COc1c(Cl)cccc1Nc1c(-c2ccncc2OCC(C)(C)OC)[nH]c2c1C(=O)NCC2CCO (single isomer, unassigned) [Example 15, 3-(3-chloro-2-methoxyanilino)-7-(2-hydroxyethyl)-2-[3-(2-methoxy-2-methylpropoxy)pyridin-4-yl]-1,5,6,7-tetrahydro-4H-pyrrolo[3,2-c]pyridin-4-one] | 1390 nM | 0.158 nM |  | 192 nM | 895 nM |
| COc1c(Cl)cccc1Nc1c(-c2ccncc2OC[C@@H]2CCCO2)[nH]c2c1C(=O)NCC2CCO (single isomer, unassigned) [Example 18] | 19200 nM and > 20000 nM | 0.113 nM |  | 26.4 nM | 362 nM |
| COc1c(Cl)cccc1Nc1c(-c2ccncc2OCC2COCCO2)[nH]c2c1C(=O)NCC2C (single isomer, unassigned) [Example 37, 3-(3-chloro-2-methoxy-anilino)-2-[3-(1,4-dioxan-2-ylmethoxy)-4-pyridyl]-7-methyl-1,5,6,7-tetrahydropyrrolo[3,2-c]pyridin-4-one] | 2870 nM | 0.318 nM |  | 149 nM | 1090 nM |
| COc1c(Cl)cccc1Nc1c(-c2ccncc2OCC2CCCCO2)[nH]c2c1C(=O)NCC2C (single isomer, unassigned) [Example 47, 3-(3-chloro-2-methoxy-anilino)-7-methyl-2-[3-(tetrahydropyran-2-ylmethoxy)-4-pyridyl]-1,5,6,7-tetrahydropyrrolo[3,2-c]pyridin-4-one] | 7600 nM | 0.667 nM |  | 106 nM | 1990 nM |
| COc1c(Cl)cccc1Nc1c(-c2ccncc2OCCC2CCCCO2)[nH]c2c1C(=O)N[C@H](C)C2 (stereo partly drawn) [Example 86, (6R)-3-(3-chloro-2-methoxy-anilino)-6-methyl-2-[3-(2-tetrahydropyran-2-ylethoxy)-4-pyridyl]-1,5,6,7-tetrahydropyrrolo[3,2-c]pyridin-4-one] | 2400 nM | 0.261 nM |  | 19.3 nM | 480 nM |
| COc1c(Cl)cccc1Nc1c(-c2ccncc2OCC2(C)CCO2)[nH]c2c1C(=O)NCC2CCO (single isomer, unassigned) [Example 21, 3-(3-chloro-2-methoxyanilino)-7-(2-hydroxyethyl)-2-{3-[(2-methyloxetan-2-yl)methoxy]pyridin-4-yl}-1,5,6,7-tetrahydro-4H-pyrrolo[3,2-c]pyridin-4-one] | > 20000 nM | 0.473 nM |  | 67.9 nM | 943 nM |
| COc1c(Cl)cccc1Nc1c(-c2ccncc2OC[C@@H]2CCCO2)[nH]c2c1C(=O)N[C@H]1CCC[C@@H]21 [Example 57, (5aS,8aR)-3-(3-chloro-2-methoxyanilino)-2-(3-{[(2S)-oxolan-2-yl]methoxy}pyridin-4-yl)-5,5a,6,7,8,8a-hexahydrocyclopenta[b]pyrrolo[2,3-d]pyridin-4(1)-one] | 281 nM | 0.246 nM |  | 195 nM | 1710 nM |
| COc1c(Cl)cccc1Nc1c(-c2ccncc2OC[C@@H]2CCCO2)[nH]c2c1C(=O)N[C@@H](C)C2 (single isomer, unassigned) [Example 4] | 3010 nM | 0.113 nM |  | 95.3 nM | 883 nM |

The next lines start with results.

| IC50 (Bub1; [3]) | mutEGFR (D770_N771insSVD) kinase assay IC50 [1] | IC50 (Bub1; read-out: Bub1 high ATP (2 mM) IC50, TR-FRET) | SMILES | GI50 [2] | GI50 (Ba/F3-EGFR-WT cells) |
| --- | --- | --- | --- | --- | --- |
| 7830 nM | 0.193 nM |  | COc1c(Cl)cccc1Nc1c(-c2ccncc2OC[C@@H]2CN(C)CCO2)[nH]c2c1C(=O)NC1(CC1)C2 [Example 112, 3′-(3-chloro-2-methoxyanilino)-2′-(3-{[(2S)-4-methylmorpholin-2-yl]methoxy}pyridin-4-yl)-1′,7′-dihydrospiro[cyclopropane-1,6′-pyrrolo[3,2-c]pyridin]-4′(5′H)-one] | 20.4 nM | 553 nM |
| 2520 nM | 0.24 nM |  | COC(C)(C)COc1cnccc1-c1[nH]c2c(c1Nc1cccc(F)c1CC(F)F)C(=O)N[C@H](C)C2 [Example 65, (6R)-3-[2-(2,2-difluoroethyl)-3-fluoroanilino]-2-[3-(2-methoxy-2-methylpropoxy)pyridin-4-yl]-6-methyl-1,5,6,7-tetrahydro-4H-pyrrolo[3,2-c]pyridin-4-one] | 72 nM | 795 nM |
| 2700 nM | 0.19 nM |  | Cc1c(Cl)cccc1Nc1c(-c2ccncc2OCC2OCCCC2(F)F)[nH]c2c1C(=O)NCC2C (stereo not shown) [Example 61, 3-(3-chloro-2-methyl-anilino)-2-[3-[(3,3-difluorotetrahydropyran-2-yl)methoxy]-4-pyridyl]-7-methyl-1,5,6,7-tetrahydropyrrolo[3,2-c]pyridin-4-one] | 20.5 nM | 534 nM |
|  | 0.796 nM | > 20000 nM | COc1c(Cl)cccc1Nc1c(-c2ccncc2OCC2COC(C)(C)CO2)[nH]c2c1C(=O)NCC2C (single isomer, unassigned) [Example 97, 3-(3-chloro-2-methoxy-anilino)-2-[3-[(5,5-dimethyl-1,4-dioxan-2-yl)methoxy]-4-pyridyl]-7-methyl-1,5,6,7-tetrahydropyrrolo[3,2-c]pyridin-4-one] | 32.1 nM | 1130 nM |
| 1730 nM | 0.145 nM |  | Cc1c(Cl)cccc1Nc1c(-c2ccncc2OCC2COCCO2)[nH]c2c1C(=O)NCC2C (stereo not shown) [Example 66, 3-(3-chloro-2-methyl-anilino)-2-[3-(1,4-dioxan-2-ylmethoxy)-4-pyridyl]-7-methyl-1,5,6,7-tetrahydropyrrolo[3,2-c]pyridin-4-one] | 42.8 nM | 766 nM |
| 7070 nM | 0.151 nM |  | COc1c(Cl)cccc1Nc1c(-c2ccncc2OCC2OCCC2(F)F)[nH]c2c1C(=O)N[C@H](C)C2 (single isomer, unassigned) [Example 72] | 36.6 nM | 628 nM |
| > 20000 nM | 0.553 nM |  | COc1c(Cl)cccc1Nc1c(-c2ccncc2OC[C@@H]2CCCO2)[nH]c2c1C(=O)NCC2CC=C(F)F (single isomer, unassigned) [Example 101] | 42.1 nM | 603 nM |
| 1980 nM | 0.243 nM |  | COc1c(Cl)cccc1Nc1c(-c2ccncc2OCC[C@@H]2CCCO2)[nH]c2c1C(=O)N[C@H](C)C2 [Example 92, (6R)-3-(3-chloro-2-methoxyanilino)-6-methyl-2-(3-{2-[(2S)-oxolan-2-yl]ethoxy}pyridin-4-yl)-1,5,6,7-tetrahydro-4H-pyrrolo[3,2-c]pyridin-4-one] | 20.2 nM | 519 nM |
| 1210 nM | 0.333 nM |  | CCc1c(Cl)cccc1Nc1c(-c2ccncc2OC[C@@H]2COCCO2)[nH]c2c1C(=O)N[C@H](C)C2 [Example 110, (6R)-3-(3-chloro-2-ethylanilino)-2-(3-{[(2S)-1,4-dioxan-2-yl]methoxy}pyridin-4-yl)-6-methyl-1,5,6,7-tetrahydro-4H-pyrrolo[3,2-c]pyridin-4-one] | 40.3 nM | 780 nM |
